These results are taken from US20230192617A1, “AZABICYCLIC(THIO)AMIDES AS FUNGICIDAL COMPOUNDS” (Bayer CropScience Aktiengesellschaft, priority 2020, published 2023).

The subject of assay [1] is Alternaria brassicae. Briefly: In vivo preventive test on Alternaria brassicae (leaf spot on radish or cabbage). To be noted: 500 ppm of active ingredient, preventive spray on radish or cabbage, evaluated 3 to 4 days after inoculation, read-out: efficacy. The procedure, abridged:
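Protective spray on young radish or cabbage: actives in water diluted from DMSO/acetone/Tween 80, with solvent-only controls. Leaves were challenged after 24 h with a spore suspension, and plants were held at 100% RH, 20 °C for 3 to 4 days.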

Assay [2] concerns Botrytis cinerea. Briefly: B-11. Botrytis cinerea in vitro cell test. As to conditions: 144 h, 20 ppm of active ingredient, 6 days incubation, liquid culture, absorbance, read-out: efficacy (inhibition of fungal growth). In kind it is cell-based. The procedure, abridged: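 B. cinerea spores were grown in liquid culture with compound (DMSO ≤1% final). Mycelium growth was measured spectrometrically after 6 days, with inhibition taken as absorbance relative to untreated control wells.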

Assay [3] relates to Pyrenophora teres. Briefly: B-10. Pyrenophora teres in vitro cell test. In kind it is cell-based. To be noted: 144 h, 20 ppm of active ingredient, 6 days incubation, liquid culture, absorbance, read-out: efficacy (inhibition of fungal growth). The procedure, abridged:
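Liquid-culture assay on a P. teres spore suspension with compounds added to the medium from DMSO solutions, final DMSO ≤1%. Mycelium growth read spectrometrically after 6 days. Inhibition calculated from absorbance against untreated control wells.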

Assay [4] deals with Sphaerotheca fuliginea. Briefly: In vivo preventive test on Sphaerotheca fuliginea (powdery mildew on cucurbits). To be noted: Podosphaera fuliginea, 192 h; 500 ppm of active ingredient; preventive spray on gherkin; evaluated 8 days after inoculation; read-out: efficacy. The procedure, abridged: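 This is a preventive spray test on gherkin seedlings, with compound formulated in DMSO/acetone/Tween 80 in water and solvent-only controls. Spore inoculation followed one day after treatment. Incubation lasted 8 days at 20 °C, 70–80% RH.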

Assay [5] deals with Septoria tritici. Briefly: B-9. Septoria tritici in vitro cell test. In kind it is cell-based. As to conditions: Zymoseptoria tritici, 168 h; 20 ppm of active ingredient; 7 days incubation; liquid culture, absorbance; read-out: efficacy (inhibition of fungal growth). In a few lines:
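Compounds from DMSO stocks (final DMSO ≤1%) were added to liquid medium containing S. tritici spores to test inhibition of germination and mycelial growth. After 7 days, mycelium growth was read spectrometrically and inhibition derived from absorbance versus fungicide-free control wells.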

Assay [6] has as its system Botrytis cinerea. Briefly: In vivo preventive test on Botrytis cinerea (grey mould). To be noted: 500 ppm of active ingredient, preventive spray on gherkin or cabbage, evaluated 4 to 5 days after inoculation, read-out: efficacy. In a few lines:
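Preventive spray on cabbage or gherkin seedlings, with compound formulated in DMSO/acetone/Tween 80 and water-diluted, preceded spore inoculation by 24 hours. Cabbage was held 4 to 5 days at 20° C., 100% relative humidity; gherkin 4 to 5 days at 17° C., 90% relative humidity.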

Assay [7] relates to Colletotrichum lindemuthianum. Briefly: B-8. Colletotrichum lindemuthianum in vitro cell test. In kind it is cell-based. To be noted: 144 h, 20 ppm of active ingredient, 6 days incubation, liquid culture, absorbance, read-out: efficacy (inhibition of fungal growth). The procedure, abridged:
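Liquid-culture germination/growth test: compounds in ≤1% final DMSO were added to spore-containing medium. Fungal growth was quantified spectrophotometrically after 6 days of incubation and expressed as inhibition versus untreated controls.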

Assay [8] has as its system Colletotrichum lindemuthianum. Briefly: In vivo preventive test on Colletotrichum lindemuthianum (leaf spot on bean). As to conditions: 168 h, 500 ppm of active ingredient, preventive spray on bean, evaluated 7 days after inoculation, read-out: efficacy. The procedure, abridged: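 Young bean plants sprayed with compound in DMSO/acetone/Tween 80 diluted in water; solvent-only controls. Inoculated 24 h later with C. lindemuthianum spore suspension, then kept 24 h at 20 °C/100% RH and 6 days at 20 °C/90% RH.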

Broadly, the inhibition is the relative decrease from the control value, in per cent. For the molecule `O=C(NCC(F)(F)c1ccc(Cl)cc1Cl)c1c(Oc2cccc(C(F)(F)F)c2)nnc2c1COCC2` [I-228], the pest or weed control at 500 ppm in assay [1], in assay [4], in assay [6] and in assay [8] was 90 to 100% each time. Also, the inhibition at 20 ppm in assay [2], in assay [3], in assay [5] and in assay [7] was 90 to 100% in each case.
As to `Cc1ccc(C(F)CNC(=O)c2c(Oc3cccc(Cl)c3F)nnc3c2CCCC3)c(C)c1` (centres unmarked) [I-136], the pest or weed control at 500 ppm in assay [1], in assay [4], in assay [6] and in assay [8] was 90 to 100% each time. Besides, the inhibition at 20 ppm in assay [2], in assay [3], in assay [5] and in assay [7] was 90 to 100% each time.
Take `Cc1ccc(C(F)(F)CNC(=O)c2c(Oc3cccc(C(F)F)c3)nnc3c2CCCC3)c(Cl)c1` [I-243]: the pest or weed control at 500 ppm in assay [1], in assay [4], in assay [6] and in assay [8] was 90 to 100% throughout. Also, the inhibition at 20 ppm in assay [2], in assay [3], in assay [5] and in assay [7] was 90 to 100% each time.
For the molecule `Cc1ccc(C(F)(F)CNC(=O)c2c(Oc3cccc(C(F)(F)F)c3)nnc3c2COCC3)c(Cl)c1` [I-124], the pest or weed control at 500 ppm in assay [1], in assay [4], in assay [6] and in assay [8] was 90 to 100% each time. Further, the inhibition at 20 ppm in assay [2], in assay [3], in assay [5] and in assay [7] was 90 to 100% throughout.
Turning to `Cc1ccc(C(F)(F)CNC(=O)c2c(Oc3cccc(Cl)c3F)nnc3c2CCCC3)c(C)c1` [I-130], the pest or weed control at 500 ppm in assay [1], in assay [4], in assay [6] and in assay [8] was 90 to 100% throughout. The inhibition at 20 ppm in assay [2], in assay [3], in assay [5] and in assay [7] was 90 to 100% each time.
In the case of `Cc1cc(Br)ccc1C(F)(F)CNC(=O)c1c(Oc2cccc(C(F)F)c2)nnc2c1CCCC2` [I-150], the pest or weed control at 500 ppm in assay [1], in assay [4], in assay [6] and in assay [8] was 90 to 100% throughout. In addition, the inhibition at 20 ppm in assay [2], in assay [3], in assay [5] and in assay [7] was 90 to 100% throughout.
`Cc1cc(Br)ccc1C(F)(F)CNC(=O)c1c(Oc2cccc(C(F)(F)F)c2)nnc2c1COCC2` [I-127]: the pest or weed control at 500 ppm in assay [1], in assay [4], in assay [6] and in assay [8] was 90 to 100% in each case. Besides, the inhibition at 20 ppm in assay [2], in assay [3], in assay [5] and in assay [7] was 90 to 100% each time.
For `Cc1cc(Cl)ccc1C(F)(F)CNC(=O)c1c(Oc2cccc(Cl)c2F)nnc2c1CCC2` [I-148], the pest or weed control at 500 ppm in assay [1], in assay [4], in assay [6] and in assay [8] was 90 to 100% in each case. The inhibition at 20 ppm in assay [2] lay in the range of 90 to 100%; in assay [3], 90 to 100%; in assay [5], 80 to 89%; in assay [7], 80 to 89%.
Turning to `O=C(NCC(F)c1ccc(Cl)cc1Cl)c1c(Oc2cccc(C(F)(F)F)c2)nnc2c1COCC2` (centres unmarked) [I-126], the pest or weed control at 500 ppm in assay [1], in assay [4], in assay [6] and in assay [8] was 90 to 100% each time. In addition, the inhibition at 20 ppm in assay [2], in assay [3], in assay [5] and in assay [7] was 90 to 100% each time.
For `O=C(NCC(F)(F)c1ccc(Br)cc1Cl)c1c(Oc2cccc(C(F)(F)F)c2)nnc2c1COCC2` [I-229], the pest or weed control at 500 ppm in assay [1], in assay [4], in assay [6] and in assay [8] was 90 to 100% throughout. For the same molecule, the inhibition at 20 ppm in assay [2], in assay [3], in assay [5] and in assay [7] was 90 to 100% in each case.
Take `O=C(NCC(F)(F)c1ccc(Br)cc1Cl)c1c(Oc2cccc(C(F)(F)F)c2)nnc2c1CCC2` [I-212]: the pest or weed control at 500 ppm in assay [1], in assay [4], in assay [6] and in assay [8] was 90 to 100% each time. Besides, the inhibition at 20 ppm in assay [2], in assay [3], in assay [5] and in assay [7] was 90 to 100% in each case.
With `O=C(NCC(F)c1ccc(Cl)cc1Cl)c1c(Oc2cccc(C3CC3)c2)nnc2c1CCCC2` (centres unmarked) [I-119, 3-(3-cyclopropylphenoxy)-N-[2-(2,4-dichlorophenyl)-2-fluoro-ethyl]-5,6,7,8-tetrahydrocinnoline-4-carboxamide], the pest or weed control at 500 ppm in assay [1], in assay [4], in assay [6] and in assay [8] was 90 to 100% throughout. For the same molecule, the inhibition at 20 ppm in assay [2], in assay [3], in assay [5] and in assay [7] was 90 to 100% each time.
In the case of `Cc1ccc(CCNC(=O)c2c(Oc3cccc(C4CC4)c3F)nnc3ccccc23)c(C)c1` [I-070], the pest or weed control at 500 ppm in assay [1], in assay [4], in assay [6] and in assay [8] was 90 to 100% in each case. The inhibition at 20 ppm in assay [2], in assay [3], in assay [5] and in assay [7] was 90 to 100% in each case.
Consider `Cc1ccc(C(F)(F)CNC(=O)c2c(Oc3cccc(C(F)(F)F)c3)nnc3c2CCCC3)c(Cl)c1` [I-239], for which the pest or weed control at 500 ppm in assay [1], in assay [4], in assay [6] and in assay [8] was 90 to 100% throughout. The inhibition at 20 ppm in assay [2], in assay [3], in assay [5] and in assay [7] was 90 to 100% throughout.
Consider `O=C(NCC(F)(F)c1ccc(Br)cc1Cl)c1c(Oc2cccc(Cl)c2F)nnc2c1CCC2` [I-213], for which the pest or weed control at 500 ppm in assay [1], in assay [4], in assay [6] and in assay [8] was 90 to 100% each time. The inhibition at 20 ppm in assay [2], in assay [3], in assay [5] and in assay [7] was 90 to 100% throughout.
`Cc1cc(Br)ccc1C(F)(F)CNC(=O)c1c(Oc2cccc(Cl)c2F)nnc2c1CCCC2` [I-152]: the pest or weed control at 500 ppm in assay [1], in assay [4], in assay [6] and in assay [8] was 90 to 100% in each case. Besides, the inhibition at 20 ppm in assay [2], in assay [3], in assay [5] and in assay [7] was 90 to 100% in each case.
